Data on four compounds can be found in US4310660A, “Lincomycin compounds” (The Upjohn Company, priority 1980, dated 1982).

As usually defined, the MIC is the least concentration at which growth counts as inhibited.

The structures appear in SMILES notation. In brackets after ≈: the same amount, converted by molar mass.

The first assay concerns S. hemolyticus. Briefly: MIC, test procedure as given supra. As to conditions: UC152, 20 h, S. hemolyticus UC 152; read-out: MIC. Format: cell-based. Here is the method: (§1) The Minimal Inhibitory Concentration (MIC's) of both compounds Vs. aerobic bacteria is determined using a standard microplate broth-dilution method. Brain Heart Infusion (BHI-Difco) broth medium is used, and the plates are incubated at 37° C. for 20 hrs.
The Minimal Inhibitory Concentration (MIC's) of a representative number of the compounds prepared in Examples 2-8 follows. The test procedure is as given supra.
Turning to `CS[C@H]1O[C@H]([C@H](NC(=O)c2ccccn2)[C@@H](C)O)[C@H](O)[C@H](O)[C@H]1O` [U-46,136], the MIC was found to be 1000 µg/mL (≈ 2790 µM).

Turning to `CS[C@H]1O[C@H]([C@H](NC(=O)c2ccncc2)[C@H](C)Cl)[C@H](O)[C@H](O)[C@H]1O` [U-46,137], the MIC stood at 1000 µg/mL (≈ 2650 µM).

For `CS[C@H]1O[C@H]([C@H](NC(=O)C2CCCCN2C)[C@H](C)Cl)[C@H](O)[C@H](O)[C@H]1O` (some centres unmarked) [U-46,699], the MIC is 3.9 µg/mL (≈ 9.83 µM).

On to `CS[C@H]1O[C@H]([C@H](NC(=O)C2CCCCN2)[C@@H](C)O)[C@H](O)[C@H](O)[C@H]1O` (some centres unmarked) [U-60,493], for which the MIC turned out to be 7.8 µg/mL (≈ 21.4 µM).

Another assay has as its system Proteus vulgaris. The experiment in a line: MIC vs. aerobic bacteria, microplate broth-dilution (BHI). Format: cell-based. The conditions noted are these: Proteus vulgaris, UC93, 20 h, P. vulgaris UC 93; read-out: MIC. Here is the method:
as §1
In the case of `CS[C@H]1O[C@H]([C@H](NC(=O)c2ccccn2)[C@@H](C)O)[C@H](O)[C@H](O)[C@H]1O` [U-46,136], the MIC is > 1000 µg/mL.

Consider `CS[C@H]1O[C@H]([C@H](NC(=O)c2ccncc2)[C@H](C)Cl)[C@H](O)[C@H](O)[C@H]1O` [U-46,137], for which the MIC is > 1000 µg/mL.

As to `CS[C@H]1O[C@H]([C@H](NC(=O)C2CCCCN2C)[C@H](C)Cl)[C@H](O)[C@H](O)[C@H]1O` (some centres unmarked) [U-46,699], the MIC came out at 1000 µg/mL (≈ 2520 µM).

Take `CS[C@H]1O[C@H]([C@H](NC(=O)C2CCCCN2)[C@@H](C)O)[C@H](O)[C@H](O)[C@H]1O` (some centres unmarked) [U-60,493]: the MIC was > 1000 µg/mL.

Another assay concerns Streptococcus faecalis. The description is as above. Format: cell-based. The conditions noted are these: Enterococcus faecalis, UC694, 20 h, St. faecalis UC 694; read-out: MIC. Here is the method: as §1
In the case of `CS[C@H]1O[C@H]([C@H](NC(=O)c2ccccn2)[C@@H](C)O)[C@H](O)[C@H](O)[C@H]1O` [U-46,136], the MIC is > 1000 µg/mL.

Take `CS[C@H]1O[C@H]([C@H](NC(=O)c2ccncc2)[C@H](C)Cl)[C@H](O)[C@H](O)[C@H]1O` [U-46,137]: the MIC was > 1000 µg/mL.

Turning to `CS[C@H]1O[C@H]([C@H](NC(=O)C2CCCCN2C)[C@H](C)Cl)[C@H](O)[C@H](O)[C@H]1O` (some centres unmarked) [U-46,699], the MIC was found to be 15.6 µg/mL (≈ 39.3 µM).

As to `CS[C@H]1O[C@H]([C@H](NC(=O)C2CCCCN2)[C@@H](C)O)[C@H](O)[C@H](O)[C@H]1O` (some centres unmarked) [U-60,493], the MIC was 1000 µg/mL (≈ 2740 µM).

A further assay has as its system Klebsiella pneumoniae. Described as above. It is filed as cell-based. The conditions noted are these: Klebsiella pneumoniae, UC58, 20 h, K. pneumoniae UC 58; read-out: MIC. Here is the method: as §1
For `CS[C@H]1O[C@H]([C@H](NC(=O)c2ccccn2)[C@@H](C)O)[C@H](O)[C@H](O)[C@H]1O` [U-46,136], the MIC was > 1000 µg/mL.

As to `CS[C@H]1O[C@H]([C@H](NC(=O)c2ccncc2)[C@H](C)Cl)[C@H](O)[C@H](O)[C@H]1O` [U-46,137], the MIC is 1000 µg/mL (≈ 2650 µM).

For the compound `CS[C@H]1O[C@H]([C@H](NC(=O)C2CCCCN2C)[C@H](C)Cl)[C@H](O)[C@H](O)[C@H]1O` (some centres unmarked) [U-46,699], the MIC was 250 µg/mL (≈ 630 µM).

For `CS[C@H]1O[C@H]([C@H](NC(=O)C2CCCCN2)[C@@H](C)O)[C@H](O)[C@H](O)[C@H]1O` (some centres unmarked) [U-60,493], the MIC was > 1000 µg/mL.

The test system of a further assay is Diplococcus pneumoniae. The description is as above. It is filed as cell-based. As to conditions: Streptococcus pneumoniae, UC41, 20 h, D. pneumoniae UC 41; read-out: MIC. Here is the method:
as §1
In the case of `CS[C@H]1O[C@H]([C@H](NC(=O)c2ccccn2)[C@@H](C)O)[C@H](O)[C@H](O)[C@H]1O` [U-46,136], the MIC is > 1000 µg/mL.

As for `CS[C@H]1O[C@H]([C@H](NC(=O)c2ccncc2)[C@H](C)Cl)[C@H](O)[C@H](O)[C@H]1O` [U-46,137], the MIC came to 500 µg/mL (≈ 1330 µM).

`CS[C@H]1O[C@H]([C@H](NC(=O)C2CCCCN2C)[C@H](C)Cl)[C@H](O)[C@H](O)[C@H]1O` (some centres unmarked) [U-46,699]: the MIC is < 1 µg/mL.

On to `CS[C@H]1O[C@H]([C@H](NC(=O)C2CCCCN2)[C@@H](C)O)[C@H](O)[C@H](O)[C@H]1O` (some centres unmarked) [U-60,493], for which the MIC was 15.6 µg/mL (≈ 42.8 µM).

The next assay relates to Escherichia coli. Described as above. Format: cell-based. As to conditions: UC45, 20 h, E. coli UC 45, read-out: MIC. Here is the method: as §1
For `CS[C@H]1O[C@H]([C@H](NC(=O)c2ccccn2)[C@@H](C)O)[C@H](O)[C@H](O)[C@H]1O` [U-46,136], the MIC is > 1000 µg/mL.

As to `CS[C@H]1O[C@H]([C@H](NC(=O)c2ccncc2)[C@H](C)Cl)[C@H](O)[C@H](O)[C@H]1O` [U-46,137], the MIC was 1000 µg/mL (≈ 2650 µM).

With `CS[C@H]1O[C@H]([C@H](NC(=O)C2CCCCN2C)[C@H](C)Cl)[C@H](O)[C@H](O)[C@H]1O` (some centres unmarked) [U-46,699], the MIC is 1000 µg/mL (≈ 2520 µM).

Regarding `CS[C@H]1O[C@H]([C@H](NC(=O)C2CCCCN2)[C@@H](C)O)[C@H](O)[C@H](O)[C@H]1O` (some centres unmarked) [U-60,493], the MIC was > 1000 µg/mL.

A further assay deals with Salmonella schottmuelleri. Described as above. Format: cell-based. As to conditions: Salmonella, UC126, 20 h, S. schottmuelleri UC 126. The procedure: as §1
In the case of `CS[C@H]1O[C@H]([C@H](NC(=O)c2ccccn2)[C@@H](C)O)[C@H](O)[C@H](O)[C@H]1O` [U-46,136], the MIC is > 1000 µg/mL.

In turn, `CS[C@H]1O[C@H]([C@H](NC(=O)c2ccncc2)[C@H](C)Cl)[C@H](O)[C@H](O)[C@H]1O` [U-46,137] gave an MIC of 1000 µg/mL (≈ 2650 µM).

On to `CS[C@H]1O[C@H]([C@H](NC(=O)C2CCCCN2C)[C@H](C)Cl)[C@H](O)[C@H](O)[C@H]1O` (some centres unmarked) [U-46,699], for which the MIC was > 1000 µg/mL.

For the compound `CS[C@H]1O[C@H]([C@H](NC(=O)C2CCCCN2)[C@@H](C)O)[C@H](O)[C@H](O)[C@H]1O` (some centres unmarked) [U-60,493], the MIC was > 1000 µg/mL.

The test system of a further assay is Pseudomonas aeruginosa. The assay is described as above. It is filed as cell-based. The conditions noted are these: UC95, 20 h, Ps. aeruginosa UC 95, read-out: MIC. The procedure: as §1
`CS[C@H]1O[C@H]([C@H](NC(=O)c2ccccn2)[C@@H](C)O)[C@H](O)[C@H](O)[C@H]1O` [U-46,136]: the MIC is > 1000 µg/mL.

Turning to `CS[C@H]1O[C@H]([C@H](NC(=O)c2ccncc2)[C@H](C)Cl)[C@H](O)[C@H](O)[C@H]1O` [U-46,137], the MIC came out at 1000 µg/mL (≈ 2650 µM).

On to `CS[C@H]1O[C@H]([C@H](NC(=O)C2CCCCN2C)[C@H](C)Cl)[C@H](O)[C@H](O)[C@H]1O` (some centres unmarked) [U-46,699], for which the MIC was > 1000 µg/mL.

Turning to `CS[C@H]1O[C@H]([C@H](NC(=O)C2CCCCN2)[C@@H](C)O)[C@H](O)[C@H](O)[C@H]1O` (some centres unmarked) [U-60,493], the MIC was > 1000 µg/mL.

For another assay, the system named is Staphylococcus aureus. The description is as above. The conditions noted are these: Staphylococcus aureus, UC76, 20 h, S. aureus UC 76; read-out: MIC. It is filed as cell-based.
`CS[C@H]1O[C@H]([C@H](NC(=O)c2ccccn2)[C@@H](C)O)[C@H](O)[C@H](O)[C@H]1O` [U-46,136]: the MIC was > 1000 µg/mL.

On to `CS[C@H]1O[C@H]([C@H](NC(=O)c2ccncc2)[C@H](C)Cl)[C@H](O)[C@H](O)[C@H]1O` [U-46,137], for which the MIC is > 1000 µg/mL.

Regarding `CS[C@H]1O[C@H]([C@H](NC(=O)C2CCCCN2C)[C@H](C)Cl)[C@H](O)[C@H](O)[C@H]1O` (some centres unmarked) [U-46,699], the MIC was determined as 3.9 µg/mL (≈ 9.83 µM).

With `CS[C@H]1O[C@H]([C@H](NC(=O)C2CCCCN2)[C@@H](C)O)[C@H](O)[C@H](O)[C@H]1O` (some centres unmarked) [U-60,493], the MIC is 1000 µg/mL (≈ 2740 µM).

The assay is the same for the next values; noted with them: Staphylococcus aureus, UC570, 20 h, S. aureus UC 570; read-out: MIC.
Consider `CS[C@H]1O[C@H]([C@H](NC(=O)c2ccccn2)[C@@H](C)O)[C@H](O)[C@H](O)[C@H]1O` [U-46,136], for which the MIC was > 1000 µg/mL.

As to `CS[C@H]1O[C@H]([C@H](NC(=O)c2ccncc2)[C@H](C)Cl)[C@H](O)[C@H](O)[C@H]1O` [U-46,137], the MIC was > 1000 µg/mL.

Take `CS[C@H]1O[C@H]([C@H](NC(=O)C2CCCCN2C)[C@H](C)Cl)[C@H](O)[C@H](O)[C@H]1O` (some centres unmarked) [U-46,699]: the MIC amounted to 7.8 µg/mL (≈ 19.7 µM).

Take `CS[C@H]1O[C@H]([C@H](NC(=O)C2CCCCN2)[C@@H](C)O)[C@H](O)[C@H](O)[C@H]1O` (some centres unmarked) [U-60,493]: the MIC stood at 1000 µg/mL (≈ 2740 µM).

Still in this assay, the particulars now being: Staphylococcus aureus, UC746, 20 h, S. aureus UC 746; read-out: MIC.
For the compound `CS[C@H]1O[C@H]([C@H](NC(=O)c2ccccn2)[C@@H](C)O)[C@H](O)[C@H](O)[C@H]1O` [U-46,136], the MIC was > 1000 µg/mL.

For the compound `CS[C@H]1O[C@H]([C@H](NC(=O)c2ccncc2)[C@H](C)Cl)[C@H](O)[C@H](O)[C@H]1O` [U-46,137], the MIC was > 1000 µg/mL.

Consider `CS[C@H]1O[C@H]([C@H](NC(=O)C2CCCCN2C)[C@H](C)Cl)[C@H](O)[C@H](O)[C@H]1O` (some centres unmarked) [U-46,699], for which the MIC was 7.8 µg/mL (≈ 19.7 µM).

Take `CS[C@H]1O[C@H]([C@H](NC(=O)C2CCCCN2)[C@@H](C)O)[C@H](O)[C@H](O)[C@H]1O` (some centres unmarked) [U-60,493]: the MIC is 250 µg/mL (≈ 686 µM).
